According to patent US20240391965A1, “STAPLED ANTIMICROBIAL PEPTIDES (STAMPS) AND USES THEREOF” (Lytica Therapeutics, Inc., priority 2021, published 2024):
Converted amounts (≈) assume the structure as drawn. Starred links: 1 amine or outer side, 2 acyl side, 3 side chain; linkers in the order of their positions; H or OH if unused. Positions of bridges follow the written chain, without caps; N, C: chain ends. Residues, ends and D or L forms follow the SMILES beside them. Biphenyl(4,4'-CH2)2 = c1cc(-c2ccc(C[*:2])cc2)ccc1C[*:1]; Naphthalene(2,6-diCH2) = c1cc2cc(C[*:2])ccc2cc1C[*:1]; mXylylene = c1cc(C[*:1])cc(C[*:2])c1; pXylylene = c1cc(C[*:2])ccc1C[*:1]; X1 = C(=CC[*:2])C[*:1]

What was measured:
[1] = 48 hours cytotoxicity assay (CellTiter-Glo), liver toxicity; type: cell-based, human
Text: (§1) In some embodiments, a peptide provided herein has hepatic toxicity that is at least 10% (e.g., at least 15%, at least 20%, at least 25%, at least 30%, at least 35%, at least 40%, at least 45%, at least 50%, at least 55%, at least 60%, at least 65%, at least 65%, at least 70%, at least 75%, at least 80%, at least 85%, at least 90%, at least 95%, at least 99%) lower than the hepatic toxicity of the reference. The hepatic toxicity of a peptide can be measured in vitro using a human liver cells (e.g., HepG2) toxicity assay.
(§2) Cell culture: RPTEC were maintained in MEM media supplemented with growth factors. HEPG2 cell line was maintained in Eagle's Minimum Essential Medium (EMEM) supplemented with fetal bovine serum to a final concentration of 10%.
48 hours cytotoxicity assay: Cells were plated in a 96-well format, and after 4 hour incubation to allow attachment, serial dilutions of StAMPs from a 5 mg/mL water stock, or vehicle, were then added to the cells in a final volume of 100 μl. After incubating at 37° C. for 48 hours, 100 μl of CellTiter-Glo® reagent was added to the cells, and the plates were incubated 10 minutes at room temperature. Luminescence was then measured on a microplate reader.
(§3) Renal toxicity was measured after 90 minutes of incubation, while liver toxicity was measured after 48 hours of incubation with StAMPs. N/A=not tested.

[2] = 90 minute cytotoxicity assay (LDH release), renal toxicity; type: cell-based
Text: as §1, with “renal” for “hepatic”, “renal proximal tubule epithelial cell (RPTEC) renal” for “human liver cells (e.g., HepG2)”
as §2
90 minute cytotoxicity assay: Cells were plated in a 96-well format, and after overnight incubation, media was replaced with fresh media. Serial dilutions of StAMPs from a 5 mg/mL water stock, or vehicle, were added to the cells in a final volume of 100 μl. After incubating at 37° C. for 90 min, 50 μl of cell culture media was transferred to a clear 96-well plate, incubated with 50 μl of lactate dehydrogenase (LDH) assay reagent for 10 min, and absorbance measured at 490 nm on a microplate reader.
as §3

`CC[C@H](C)[C@H](NC(=O)CN)C(=O)N[C@@H](Cc1ccccc1)C(=O)N[C@H]1CSCC=CCSC[C@@H](C(=O)N[C@@H](CCCCN)C(=O)N[C@@H](CCCCN)C(=O)N[C@H](C(=O)N[C@@H](CCCCN)C(=O)N[C@@H](CC(N)=O)C(=O)N[C@@H](CC(C)C)C(=O)N[C@@H](CC(C)C)C(=O)N[C@H](C(=O)N[C@@H](CO)C(=O)NCC(=O)N[C@@H](CC(C)C)C(=O)N[C@@H](CCCCN)C(=O)NCC(N)=O)[C@@H](C)CC)[C@@H](C)CC)NC(=O)[C@H](C)NC(=O)[C@H](CC(C)C)NC(=O)[C@H](CCCCN)NC1=O` [compound 7] (H-GIFCKLACKKIKNLLISGLKG-NH2; linker 4-8 via X1; N-terminus assumed) gave an IC50 [1] of 51 µg/mL (≈ 22.2 µM) and an IC50 [2] of 62 µg/mL (≈ 27 µM).

With `CC[C@H](C)[C@H](NC(=O)CN)C(=O)N[C@@H](Cc1ccccc1)C(=O)N[C@@H](CO)C(=O)N[C@@H](CCCCN)C(=O)N[C@H]1CSCc2cccc(c2)CSC[C@@H](C(=O)N[C@H](C(=O)N[C@@H](CCCCN)C(=O)N[C@@H](CC(N)=O)C(=O)N[C@@H](CC(C)C)C(=O)N[C@@H](CC(C)C)C(=O)N[C@H](C(=O)N[C@@H](CO)C(=O)NCC(=O)N[C@@H](CC(C)C)C(=O)N[C@@H](CCCCN)C(=O)NCC(N)=O)[C@@H](C)CC)[C@@H](C)CC)NC(=O)[C@H](CCCCN)NC(=O)CNC(=O)[C@H](C)NC1=O` [compound 41] (H-GIFSKCAGKCIKNLLISGLKG-NH2; linker 6-10 via mXylylene; N-terminus assumed) the IC50 [1] was 21 µg/mL (≈ 9.33 µM) and the IC50 [2] was 58 µg/mL (≈ 25.8 µM).

Work on `CC[C@H](C)[C@H](NC(=O)CN)C(=O)N[C@@H](Cc1ccccc1)C(=O)N[C@@H](CO)C(=O)N[C@@H](CCCCN)C(=O)N[C@@H](CC(C)C)C(=O)N[C@@H](C)C(=O)NCC(=O)N[C@@H](CCCCN)C(=O)N[C@H]1CSCc2ccc(cc2)-c2ccc(cc2)CSC[C@@H](C(=O)NCC(=O)N[C@@H](CC(C)C)C(=O)N[C@@H](CCCCN)C(=O)NCC(N)=O)NC(=O)[C@H]([C@@H](C)CC)NC(=O)[C@H](CC(C)C)NC(=O)[C@H](CC(C)C)NC(=O)[C@H](CC(N)=O)NC(=O)[C@H](CCCCN)NC(=O)[C@H]([C@@H](C)CC)NC1=O` [compound 74] (H-GIFSKLAGKCIKNLLICGLKG-NH2; linker 10-17 via Biphenyl(4,4'-CH2)2; N-terminus assumed) yielded an IC50 [2] of 4 µg/mL (≈ 1.7 µM).

For `CC[C@H](C)[C@H](NC(=O)CN)C(=O)N[C@@H](Cc1ccccc1)C(=O)N[C@@H](CO)C(=O)N[C@@H](CCCCN)C(=O)N[C@@H](CC(C)C)C(=O)N[C@@H](C)C(=O)NCC(=O)N[C@@H](CCCCN)C(=O)N[C@@H](CCCCN)C(=O)N[C@H](C(=O)N[C@@H](CCCCN)C(=O)N[C@H]1CSCC=CCSC[C@@H](C(=O)NCC(=O)N[C@@H](CC(C)C)C(=O)N[C@@H](CCCCN)C(=O)NCC(N)=O)NC(=O)[C@H]([C@@H](C)CC)NC(=O)[C@H](CC(C)C)NC(=O)[C@H](CC(C)C)NC1=O)[C@@H](C)CC` [compound 25] (H-GIFSKLAGKKIKCLLICGLKG-NH2; linker 13-17 via X1; N-terminus assumed), the IC50 [1] was 141 µg/mL (≈ 62.9 µM) and the IC50 [2] was 200 µg/mL (≈ 89.2 µM).

For `CC[C@H](C)[C@H](NC(=O)CN)C(=O)N[C@@H](Cc1ccccc1)C(=O)N[C@@H](CO)C(=O)N[C@@H](CCCCN)C(=O)N[C@@H](CC(C)C)C(=O)N[C@H]1CSCc2ccc(cc2)CSC[C@@H](C(=O)N[C@@H](CCCCN)C(=O)N[C@@H](CC(N)=O)C(=O)N[C@@H](CC(C)C)C(=O)N[C@@H](CC(C)C)C(=O)N[C@H](C(=O)N[C@H]2CSCc3ccc(cc3)CSC[C@@H](C(N)=O)NC(=O)[C@H](CCCCN)NC(=O)[C@H](CC(C)C)NC(=O)CNC2=O)[C@@H](C)CC)NC(=O)[C@H](CCCCN)NC(=O)[C@H](CCCCN)NC(=O)CNC1=O` [compound 90] (H-GIFSKLCGKKCKNLLICGLKC-NH2; linker 7-11, 17-21 via pXylylene; N-terminus assumed), the IC50 ([2]; 90 minutes of incubation, LDH release, read-out: Inhibitory Concentration at 50% Cytotoxicity (IC50) Human Renal Proximal Tubule Epithelial Cells (RPTEC)) was > 200 µg/mL.

With `CC[C@H](C)[C@H](NC(=O)CN)C(=O)N[C@@H](Cc1ccccc1)C(=O)N[C@@H](CO)C(=O)N[C@@H](CCCCN)C(=O)N[C@@H](CC(C)C)C(=O)N[C@H]1CSCC=CCSC[C@@H](C(=O)N[C@@H](CCCCN)C(=O)N[C@@H](CC(N)=O)C(=O)N[C@@H](CC(C)C)C(=O)N[C@@H](CC(C)C)C(=O)N[C@H](C(=O)N[C@@H](CO)C(=O)NCC(=O)N[C@@H](CC(C)C)C(=O)N[C@@H](CCCCN)C(=O)NCC(N)=O)[C@@H](C)CC)NC(=O)[C@H](CCCCN)NC(=O)[C@H](CCCCN)NC(=O)CNC1=O` [compound 4] (H-GIFSKLCGKKCKNLLISGLKG-NH2; linker 7-11 via X1; N-terminus assumed) the IC50 [1] was 98 µg/mL (≈ 43.4 µM) and the IC50 [2] was ~200 µg/mL (≈ 88.5 µM).

For `CC[C@H](C)[C@H](NC(=O)CN)C(=O)N[C@@H](Cc1ccccc1)C(=O)N[C@@H](CO)C(=O)N[C@@H](CCCCN)C(=O)N[C@@H](CC(C)C)C(=O)N[C@@H](C)C(=O)NCC(=O)N[C@@H](CCCCN)C(=O)N[C@@H](CCCCN)C(=O)N[C@H](C(=O)N[C@@H](CCCCN)C(=O)N[C@@H](CC(N)=O)C(=O)N[C@H]1CSCC=CCSC[C@@H](C(=O)N[C@@H](CC(C)C)C(=O)N[C@@H](CCCCN)C(=O)NCC(N)=O)NC(=O)[C@H](CO)NC(=O)[C@H]([C@@H](C)CC)NC(=O)[C@H](CC(C)C)NC1=O)[C@@H](C)CC` [compound 28] (H-GIFSKLAGKKIKNCLISCLKG-NH2; linker 14-18 via X1; N-terminus assumed), the IC50 [1] was > 200 µg/mL and the IC50 [2] was > 200 µg/mL.

In the case of `CC[C@H](C)[C@H](NC(=O)CN)C(=O)N[C@@H](Cc1ccccc1)C(=O)N[C@@H](CO)C(=O)N[C@@H](CCCCN)C(=O)N[C@@H](CC(C)C)C(=O)N[C@@H](C)C(=O)NCC(=O)N[C@@H](CCCCN)C(=O)N[C@@H](CCCCN)C(=O)N[C@H](C(=O)N[C@@H](CCCCN)C(=O)N[C@H]1CSCc2cccc(c2)CSC[C@@H](C(=O)NCC(=O)N[C@@H](CC(C)C)C(=O)N[C@@H](CCCCN)C(=O)NCC(N)=O)NC(=O)[C@H]([C@@H](C)CC)NC(=O)[C@H](CC(C)C)NC(=O)[C@H](CC(C)C)NC1=O)[C@@H](C)CC` [compound 23] (H-GIFSKLAGKKIKCLLICGLKG-NH2; linker 13-17 via mXylylene; N-terminus assumed), the IC50 [1] is reported as 97 µg/mL (≈ 42.3 µM) and the IC50 [2] is reported as 52 µg/mL (≈ 22.7 µM).

With `CC[C@H](C)[C@H](NC(=O)CN)C(=O)N[C@@H](Cc1ccccc1)C(=O)N[C@@H](CO)C(=O)N[C@@H](CCCCN)C(=O)N[C@@H](CC(C)C)C(=O)N[C@H]1CSCc2cccc(c2)CSC[C@@H](C(=O)N[C@@H](CCCCN)C(=O)N[C@@H](CC(N)=O)C(=O)N[C@@H](CC(C)C)C(=O)N[C@@H](CC(C)C)C(=O)N[C@H](C(=O)N[C@@H](CO)C(=O)NCC(=O)N[C@@H](CC(C)C)C(=O)N[C@@H](CCCCN)C(=O)NCC(=O)O)[C@@H](C)CC)NC(=O)[C@H](CCCCN)NC(=O)[C@H](CCCCN)NC(=O)CNC1=O` [compound 91] (H-GIFSKLCGKKCKNLLISGLKG-OH; linker 7-11 via mXylylene; N-terminus assumed) the IC50 [2] was > 200 µg/mL.

For `CC[C@H](C)[C@H](NC(=O)[C@H](CC(C)C)NC(=O)[C@H](CC(C)C)NC(=O)[C@H](CC(N)=O)NC(=O)[C@H](CCCCN)NC(=O)[C@@H](NC(=O)[C@H](CCCCN)NC(=O)[C@H](CCCCN)NC(=O)CNC(=O)[C@H](C)NC(=O)[C@@H]1CSCC=CCSC[C@H](NC(=O)CN)C(=O)N[C@@H](Cc2ccccc2)C(=O)N[C@@H](CO)C(=O)N[C@@H](CCCCN)C(=O)N1)[C@@H](C)CC)C(=O)N[C@@H](CO)C(=O)NCC(=O)N[C@@H](CC(C)C)C(=O)N[C@@H](CCCCN)C(=O)NCC(N)=O` [compound 48] (H-GCFSKCAGKKIKNLLISGLKG-NH2; linker 2-6 via X1; N-terminus assumed), the IC50 [1] was > 800 µg/mL.

`CC[C@H](C)[C@H](NC(=O)CN)C(=O)N[C@@H](Cc1ccccc1)C(=O)N[C@@H](CO)C(=O)N[C@H]1CSCc2ccc3cc(ccc3c2)CSC[C@@H](C(=O)N[C@@H](CC(N)=O)C(=O)N[C@@H](CC(C)C)C(=O)N[C@@H](CC(C)C)C(=O)N[C@H](C(=O)N[C@@H](CO)C(=O)NCC(=O)N[C@@H](CC(C)C)C(=O)N[C@@H](CCCCN)C(=O)NCC(N)=O)[C@@H](C)CC)NC(=O)[C@H]([C@@H](C)CC)NC(=O)[C@H](CCCCN)NC(=O)[C@H](CCCCN)NC(=O)CNC(=O)[C@H](C)NC(=O)[C@H](CC(C)C)NC1=O` [compound 62] (H-GIFSCLAGKKICNLLISGLKG-NH2; linker 5-12 via Naphthalene(2,6-diCH2)) showed an IC50 ([1]; 48 hours of incubation, CellTiter-Glo, read-out: Inhibitory Concentration at 50% Cytotoxicity (IC50) Human Liver Cells (HepG2)) of 81 µg/mL (≈ 35.4 µM).
